Measured values published in US12702660B2, “Method for treating cancer with an oral dosage form of an estrogen receptor-alpha inhibitor” (Eisai R&D Management Co., Ltd., priority 2019, dated 2026).
Read-outs that look alike come from different tables or passages of the source.

Assay: Plasma PK of H3B-6545 capsules in fasted patients, phase 1 dose escalation
Format: in vivo, human
Conditions: for Tlag: Median (Min, Max)
Protocol: Blood samples were collected at the planned time points from each patient and centrifuged. The plasma portion of each sample was then transferred to a K2EDTA tube, which was then shipped to a bioanalytical lab for concentration measurement using LC-MS/MS. The concentration data were then analyzed using Phoenix® WinNonlin software to obtain PK parameters. The obtained PK parameters were further summarized using analytical software.
Blood samples (approximately 5 mL each) were collected from human patients pre-dose and at various hourly time points post-dose. Plasma concentrations of H3B-6545 were determined using a validated high-performance liquid chromatography/tandem mass spectrometry (LC-MS/MS) method. The lower limit of quantification was 0.100 ng/mL.
The PK Analysis Set included subjects who received H3B-6545 drug product in capsules or tablets and had sufficient evaluable plasma concentration data to derive at least 1 primary PK parameter in each treatment. Plasma concentrations of H3B-6545 (as free base) were tabulated and summarized at each nominal time using descriptive statistics (number of subjects, arithmetic mean with standard deviation [SD], coefficient of variation [CV %], geometric mean, median, minimum, and maximum) as appropriate. Individual and mean (±SD) plasma concentration-time profiles were provided for each treatment.
Pharmacokinetic parameters of H3B-6545 were calculated using noncompartmental methods, using an appropriate model for plasma data and extravascular administration. The PK parameters included, but were not limited to, area under the curve to the time of the last quantifiable concentration (AUC0-t), maximum concentration (Cmax), and time at which the maximum concentration occurred (tmax). If data permitted, the area under the plasma concentration-time curve extrapolated to infinity (AUC0-inf), terminal elimination half-life (t1/2), apparent total body clearance (CL/F), total systemic clearance after oral administration at steady state (CLss/F), apparent volume of distribution during the terminal phase (Vz/F), apparent steady-state volume of distribution (Vss), accumulation ratio for Cmax (RCmax) and accumulation ratio of AUC0-24 (RAUC) were also derived.
Methods were used to analyze whether H3B-6545 inactivates both wild-type and mutant ERα by targeting cysteine 530 and enforcing a unique antagonist conformation. Methods: Women with locally advanced or metastatic HR+BC are treated (tx) with H3B-6545 drug product administered once daily orally by capsule over a 28 day cycle after progression on at least one hormonal therapy and at least one additional therapy/regimen. Dose escalation uses a 3+3 design with the option to backfill previously cleared doses and allows for intrapatient dose escalation. This example explored the safety, pharmacokinetics and pharmacodynamics of H3B-6545 in women with HR+BC to identify a recommended subsequent dose for testing.
• H3B-6545 administered once daily orally over a 28 day cycle. • Dose escalation using a standard 3+3 study design using dose cohorts of 100, 200, 300, 450, and 600 mg QD. • Patients allowed to backfill previously cleared doses. • Intra-patient dose escalation allowed after completion of Cycle 3. Results (as of Apr. 20, 2019) Patient Population: • 46 patients were treated with H3B-6545 at doses of 100 to 600 mg QD. • 42 (91.3%) patients received a prior CDK4/6 inhibitor and 32 (69.6%) prior fulvestrant. • 30 (65.2%) patients received ≥3 prior anti-cancer therapy lines in the advanced/metastatic setting.
The clinical trial of Example 3 was continued and PK evaluations (of this Example 4) were made at a later date on the basis of a larger patient population. The summary of Tables 1 in Analysis of Pharmacokinetic (PK) of Capsules in Fasted Patients and 2 show PK parameters and profiles of human patients receiving capsules of H3B-6545 drug product prepared as in Example 1. […]

[1] = Cycle 1 Day 15, 100 mg QD capsules, fasted patients, Geometric Mean (GeoCV %)
[2] = Cycle 1 Day 15, 100 mg QD capsules, fasted patients, normalized from Table 11
[3] = Cycle 1 Day 15, 200 mg QD capsules, fasted patients, Geometric Mean (GeoCV %)
[4] = Cycle 1 Day 15, 200 mg QD capsules, fasted patients, normalized from Table 11
[5] = Cycle 1 Day 15, 300 mg QD capsules, fasted patients, Geometric Mean (GeoCV %)
[6] = Cycle 1 Day 15, 300 mg QD capsules, fasted patients, normalized from Table 11
[7] = Cycle 1 Day 15, 450 mg QD capsules, fasted patients, Geometric Mean (GeoCV %)
[8] = Cycle 1 Day 15, 450 mg QD capsules, fasted patients, normalized from Table 11
[9] = Cycle 1 Day 15, 600 mg QD capsules, fasted patients, Geometric Mean (GeoCV %)
[10] = Cycle 1 Day 15, 600 mg QD capsules, fasted patients, normalized from Table 11
[11] = Cycle 1 Day-Dose Escalation, 100 mg QD capsules, fasted patients, normalized from Table 9
[12] = Cycle 1 Day-Dose Escalation, 200 mg QD capsules, fasted patients, normalized from Table 9
[13] = Cycle 1 Day-Dose Escalation, 300 mg QD capsules, fasted patients, normalized from Table 9
[14] = Cycle 1 Day-Dose Escalation, 450 mg QD capsules, fasted patients, normalized from Table 9
[15] = Cycle 1 Day-Dose Escalation, 600 mg QD capsules, fasted patients, normalized from Table 9
[16] = female, human, plasma, oral, 100 mg, Cycle 1 Day 1, 100 mg QD capsules, fasted patients, Geometric Mean (GeoCV %)

CN(C)C(=O)/C=C/CNCCOc1ccc(/C(=C(/CC(F)(F)F)c2ccccc2)c2ccc3[nH]nc(F)c3c2)cn1 [H3B-6545, (E)-N,N-dimethyl-4-[2-[5-[(Z)-4,4,4-trifluoro-1-(3-fluoro-1H-indazol-5-yl)-2-phenylbut-1-enyl]pyridin-2-yl]oxyethylamino]but-2-enamide]
plasma exposure versus dose (100 mg to 600 mg, Cycle 1, Day 1, preliminary PK analyses (FIG. 1)): roughly dose-proportional increase
tmax and half-life, dependence on dose and time (100 mg to 600 mg, preliminary PK analyses (FIG. 1)): independent of dose and time
plasma concentration versus dose (100 to 600 mg, as of Apr. 20, 2019 (FIG. 1)): increased with dose
CL/F (Cycle 1 Day 1, 100 mg QD capsules, fasted patients, Geometric Mean (GeoCV %)): 46.9 (92.2); 6 L/h
Tlag (Cycle 1 Day 1, 100 mg QD capsules, fasted patients): 0 (0-1); 6 h
CL/F (Cycle 1 Day 1, 200 mg QD capsules, fasted patients, Geometric Mean (GeoCV %)): 37.9 (68.3); 8 L/h
Tlag (Cycle 1 Day 1, 200 mg QD capsules, fasted patients): 0 (0-0.6); 12 h
CL/F (Cycle 1 Day 1, 300 mg QD capsules, fasted patients, Geometric Mean (GeoCV %)): 27.1 (49.1); 10 L/h
Tlag (Cycle 1 Day 1, 300 mg QD capsules, fasted patients): 0 (0-0.58); 11 h
CL/F (Cycle 1 Day 1, 450 mg QD capsules, fasted patients, Geometric Mean (GeoCV %)): 19.6 (42.4); 8 L/h
Tlag (Cycle 1 Day 1, 450 mg QD capsules, fasted patients): 0 (0-0.5); 11 h
CL/F (Cycle 1 Day 1, 600 mg QD capsules, fasted patients, Geometric Mean (GeoCV %)): 18.3 (68.6); 5 L/h
Tlag (Cycle 1 Day 1, 600 mg QD capsules, fasted patients): 0 (0-0.5); 7 h
CLss/F [1]: 39.1 (56.2); 6 L/h
RAUC (accumulation ratio of AUC0-24) [1]: 1.52 (58.3); 6
RCmax (accumulation ratio for Cmax) [1]: 1.61 (69.3); 6
Tlag (Cycle 1 Day 15, 100 mg QD capsules, fasted patients): 0 (0-0); 6 h
AUC0-24 (per 1 mg of API) [2]: 25.6 ng·h/mL/mg
AUC0-inf (per 1 mg of API) [2]: 29.5 ng·h/mL/mg
AUC0-t (per 1 mg of API) [2]: 25.9 ng·h/mL/mg
Cmax (per 1 mg of API) [2]: 2.9 ng/mL/mg
CLss/F [3]: 29.1 (52.8); 10 L/h
RAUC (accumulation ratio of AUC0-24) [3]: 1.43 (72.9); 10
RCmax (accumulation ratio for Cmax) [3]: 1.28 (118.2); 10
Tlag (Cycle 1 Day 15, 200 mg QD capsules, fasted patients): 0 (0-0); 10 h
AUC0-24 (per 1 mg of API) [4]: 34.4 ng·h/mL/mg
AUC0-inf (per 1 mg of API) [4]: 39.8 ng·h/mL/mg
AUC0-t (per 1 mg of API) [4]: 34.6 ng·h/mL/mg
Cmax (per 1 mg of API) [4]: 3.0 ng/mL/mg
CLss/F [5]: 26.2 (50.5); 10 L/h
RAUC (accumulation ratio of AUC0-24) [5]: 1.27 (38.3); 11
RCmax (accumulation ratio for Cmax) [5]: 1.34 (38.3); 11
Tlag (Cycle 1 Day 15, 300 mg QD capsules, fasted patients): 0 (0-0); 11 h
AUC0-24 (per 1 mg of API) [6]: 40.0 ng·h/mL/mg
AUC0-inf (per 1 mg of API) [6]: 42.5 ng·h/mL/mg
AUC0-t (per 1 mg of API) [6]: 40.3 ng·h/mL/mg
Cmax (per 1 mg of API) [6]: 4.0 ng/mL/mg
CLss/F [7]: 32.1 (52.6); 10 L/h
RAUC (accumulation ratio of AUC0-24) [7]: 0.920 (49); 10
RCmax (accumulation ratio for Cmax) [7]: 1.05 (42.1); 10
Tlag (Cycle 1 Day 15, 450 mg QD capsules, fasted patients): 0 (0-0); 10 h
AUC0-24 (per 1 mg of API) [8]: 31.2 ng·h/mL/mg
AUC0-inf (per 1 mg of API) [8]: 38.6 ng·h/mL/mg
AUC0-t (per 1 mg of API) [8]: 31.2 ng·h/mL/mg
Cmax (per 1 mg of API) [8]: 3.1 ng/mL/mg
CLss/F [9]: 32.7 (78.1); 3 L/h
RAUC (accumulation ratio of AUC0-24) [9]: 0.712 (31.4); 3
RCmax (accumulation ratio for Cmax) [9]: 0.685 (69.2); 3
Tlag (Cycle 1 Day 15, 600 mg QD capsules, fasted patients): 0 (0-0); 3 h
AUC0-24 (per 1 mg of API) [10]: 30.6 ng·h/mL/mg
AUC0-inf (per 1 mg of API) [10]: 66.2 ng·h/mL/mg
AUC0-t (per 1 mg of API) [10]: 31.2 ng·h/mL/mg
Cmax (per 1 mg of API) [10]: 2.8 ng/mL/mg
AUC0-24 (per 1 mg of API) [11]: 16.8 ng·h/mL/mg
AUC0-inf (per 1 mg of API) [11]: 21.3 ng·h/mL/mg
AUC0-t (per 1 mg of API) [11]: 16.8 ng·h/mL/mg
Cmax (per 1 mg of API) [11]: 1.78 ng/mL/mg
AUC0-24 (per 1 mg of API) [12]: 23.8 ng·h/mL/mg
AUC0-inf (per 1 mg of API) [12]: 26.37 ng·h/mL/mg
AUC0-t (per 1 mg of API) [12]: 24.1 ng·h/mL/mg
Cmax (per 1 mg of API) [12]: 2.4 ng/mL/mg
AUC0-24 (per 1 mg of API) [13]: 31.6 ng·h/mL/mg
AUC0-inf (per 1 mg of API) [13]: 36.9 ng·h/mL/mg
AUC0-t (per 1 mg of API) [13]: 31.8 ng·h/mL/mg
Cmax (per 1 mg of API) [13]: 3.0 ng/mL/mg
AUC0-24 (per 1 mg of API) [14]: 35.9 ng·h/mL/mg
AUC0-inf (per 1 mg of API) [14]: 51.1 ng·h/mL/mg
AUC0-t (per 1 mg of API) [14]: 35.9 ng·h/mL/mg
Cmax (per 1 mg of API) [14]: 3.3 ng/mL/mg
AUC0-24 (per 1 mg of API) [15]: 37.3 ng·h/mL/mg
AUC0-inf (per 1 mg of API) [15]: 54.8 ng·h/mL/mg
AUC0-t (per 1 mg of API) [15]: 37.2 ng·h/mL/mg
Cmax (per 1 mg of API) [15]: 3.4 ng/mL/mg
AUC(0-inf) [16]: 2130 ng·h/mL
Cmax [16]: 178 ng/mL
half-life [16]: 10.2 h
AUC(0-t) (female, human, plasma, oral, 100 mg, Cycle 1 Day 1, 100 mg QD capsules, fasted patients, Geometric Mean (GeoCV %), read-out: AUC0-24): 1680 ng·h/mL
AUC(0-t) (female, human, plasma, oral, 100 mg, Cycle 1 Day 1, 100 mg QD capsules, fasted patients, Geometric Mean (GeoCV %), read-out: AUC0-t): 1680 ng·h/mL
